pIC50: −log10 of the molar value.
Test system: 857933-349-R-J2-PDC complex spheroids, viability
Assay: Anticancer human tumor 857933-349-R-J2-PDC patient-derived colon adenocarcinoma cell line growth inhibition [GQUAD]
Settings: for pIC50: curve of first compound; for viability, T/C: stronger effect = lower value
How it was run: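 Viability of tumor cells grown as complex spheroids with endothelial and stromal cells, exposed to drug combinations. Top concentration at or near clinical Cmax (else 10 microM), diluted in half-log increments.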

[1] = second compound 0.0316 µM, first compound 0.0316 µM
[2] = second compound 0.0316 µM, first compound 0.1 µM
[3] = second compound 0.0316 µM, first compound 0.316 µM
[4] = second compound 0.0316 µM, first compound 1 µM
[5] = second compound 0.0316 µM, first compound 3.16 µM
[6] = second compound 0.0316 µM, first compound 10 µM
[7] = second compound 0.1 µM, first compound 0.0316 µM
[8] = second compound 0.1 µM, first compound 0.1 µM
[9] = second compound 0.1 µM, first compound 0.316 µM
[10] = second compound 0.1 µM, first compound 1 µM
[11] = second compound 0.1 µM, first compound 3.16 µM
[12] = second compound 0.1 µM, first compound 10 µM
[13] = second compound 0.316 µM, first compound 0.0316 µM
[14] = second compound 0.316 µM, first compound 0.1 µM
[15] = second compound 0.316 µM, first compound 0.316 µM
[16] = second compound 0.316 µM, first compound 1 µM
[17] = second compound 0.316 µM, first compound 3.16 µM
[18] = second compound 0.316 µM, first compound 10 µM
[19] = second compound 1 µM, first compound 0.0316 µM
[20] = second compound 1 µM, first compound 0.1 µM
[21] = second compound 1 µM, first compound 0.316 µM
[22] = second compound 1 µM, first compound 1 µM
[23] = second compound 1 µM, first compound 3.16 µM
[24] = second compound 1 µM, first compound 10 µM
[25] = second compound 3.16 µM, first compound 0.0316 µM
[26] = second compound 3.16 µM, first compound 0.1 µM
[27] = second compound 3.16 µM, first compound 0.316 µM
[28] = second compound 3.16 µM, first compound 1 µM
[29] = second compound 3.16 µM, first compound 3.16 µM
[30] = second compound 3.16 µM, first compound 10 µM
[31] = second compound 10 µM, first compound 0.0316 µM
[32] = second compound 10 µM, first compound 0.1 µM
[33] = second compound 10 µM, first compound 0.316 µM
[34] = second compound 10 µM, first compound 1 µM
[35] = second compound 10 µM, first compound 3.16 µM
[36] = second compound 10 µM, first compound 10 µM
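Note: spheroids exposed to compounds for one week before readout.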
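Throughout, for viability, T/C: percent viability relative to vehicle DMSO wells taken as 100%.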

Question: `O=C(c1cc(Cc2n[nH]c(=O)c3ccccc23)ccc1F)N1CCN(C(=O)C2CC2)CC1` + CN(C)c1ccc(Nc2c3ccc(NC(=O)CCN4CCCC4)cc3nc3cc(NC(=O)CCN4CCCC4)ccc23)cc1 was tested. Which pIC50 (second compound 0.0316 µM) did it give?
Answer: Its pIC50 is less than 5.00.

Question: And the pIC50 (second compound 0.1 µM)?
Answer: The pIC50 was less than 5.00.

Question: What about the pIC50 (second compound 0.316 µM) of the same compound?
Answer: The pIC50 was less than 5.00.

Question: What about the pIC50 (second compound 1 µM) of the same compound?
Answer: Its pIC50 is less than 5.00.

Question: What about the pIC50 (second compound 3.16 µM) of the same compound?
Answer: Its pIC50 is less than 5.00.

Question: And the pIC50 (second compound 10 µM)?
Answer: Its pIC50 is less than 5.00.

Question: And the viability, T/C [1]?
Answer: Its viability, T/C is 111%.

Question: And the viability, T/C [2]?
Answer: The viability, T/C was 99.1%.

Question: And the viability, T/C [3]?
Answer: Its viability, T/C is 108%.

Question: What about the viability, T/C [4] of the same compound?
Answer: Its viability, T/C is 98.8%.

Question: What about the viability, T/C [5] of the same compound?
Answer: Its viability, T/C is 106%.

Question: What about the viability, T/C [6] of the same compound?
Answer: The viability, T/C was 107%.

Question: What about the viability, T/C [7] of the same compound?
Answer: The viability, T/C was 109%.

Question: And the viability, T/C [8]?
Answer: The viability, T/C was 104%.

Question: What about the viability, T/C [9] of the same compound?
Answer: The viability, T/C was 100%.

Question: And the viability, T/C [10]?
Answer: Its viability, T/C is 104%.

Question: What about the viability, T/C [11] of the same compound?
Answer: The viability, T/C was 99.8%.

Question: What about the viability, T/C [12] of the same compound?
Answer: Its viability, T/C is 108%.

Question: What about the viability, T/C [13] of the same compound?
Answer: The viability, T/C was 103%.

Question: What about the viability, T/C [14] of the same compound?
Answer: The viability, T/C was 99.3%.

Question: And the viability, T/C [15]?
Answer: Its viability, T/C is 103%.

Question: And the viability, T/C [16]?
Answer: Its viability, T/C is 98.4%.

Question: And the viability, T/C [17]?
Answer: Its viability, T/C is 109%.

Question: And the viability, T/C [18]?
Answer: Its viability, T/C is 107%.

Question: And the viability, T/C [19]?
Answer: The viability, T/C was 96%.

Question: What about the viability, T/C [20] of the same compound?
Answer: Its viability, T/C is 95.6%.

Question: What about the viability, T/C [21] of the same compound?
Answer: The viability, T/C was 104%.

Question: What about the viability, T/C [22] of the same compound?
Answer: Its viability, T/C is 93.7%.

Question: And the viability, T/C [23]?
Answer: Its viability, T/C is 109%.

Question: And the viability, T/C [24]?
Answer: Its viability, T/C is 98.5%.

Question: And the viability, T/C [25]?
Answer: Its viability, T/C is 91.2%.

Question: What about the viability, T/C [26] of the same compound?
Answer: Its viability, T/C is 82%.

Question: And the viability, T/C [27]?
Answer: The viability, T/C was 91.2%.

Question: And the viability, T/C [28]?
Answer: The viability, T/C was 84%.

Question: What about the viability, T/C [29] of the same compound?
Answer: The viability, T/C was 93.4%.

Question: What about the viability, T/C [30] of the same compound?
Answer: The viability, T/C was 91.8%.

Question: What about the viability, T/C [31] of the same compound?
Answer: Its viability, T/C is 73.1%.

Question: And the viability, T/C [32]?
Answer: The viability, T/C was 76.3%.

Question: And the viability, T/C [33]?
Answer: The viability, T/C was 75.4%.

Question: And the viability, T/C [34]?
Answer: Its viability, T/C is 73.2%.

Question: And the viability, T/C [35]?
Answer: Its viability, T/C is 80.5%.

Question: And the viability, T/C [36]?
Answer: The viability, T/C was 81.5%.

Question: What does the source list for `O=C(NO)c1cnc(N2CCN(S(=O)(=O)c3ccc4ccccc4c3)CC2)nc1` + Cc1[nH]c2ccc(F)cc2c1-c1nc2c3cccnc3c3ncccc3c2[nH]1?
Answer: pIC50 (second compound 0.0316 µM): 5.82; pIC50 (second compound 0.1 µM): 5.80; pIC50 (second compound 0.316 µM): 5.79; pIC50 (second compound 1 µM): 5.77; pIC50 (second compound 3.16 µM): 5.80; pIC50 (second compound 10 µM): 5.75; viability, T/C [1]: 107%; viability, T/C [2]: 96.5%; viability, T/C [3]: 107%; viability, T/C [4]: 79%; viability, T/C [5]: 1.25%; viability, T/C [6]: 0.26%; viability, T/C [7]: 109%; viability, T/C [8]: 103%; viability, T/C [9]: 100%; viability, T/C [10]: 81.9%; viability, T/C [11]: 2.07%; viability, T/C [12]: 0.2%; viability, T/C [13]: 101%; viability, T/C [14]: 100%; viability, T/C [15]: 96.1%; viability, T/C [16]: 80.5%; viability, T/C [17]: 6.68%; viability, T/C [18]: 0.19%; viability, T/C [19]: 94.7%; viability, T/C [20]: 92.4%; viability, T/C [21]: 98.2%; viability, T/C [22]: 84.8%; viability, T/C [23]: 7.25%; viability, T/C [24]: 0.23%; viability, T/C [25]: 93.1%; viability, T/C [26]: 93.7%; viability, T/C [27]: 96.1%; viability, T/C [28]: 80.8%; viability, T/C [29]: 4.92%; viability, T/C [30]: 0.25%; viability, T/C [31]: 95.7%; viability, T/C [32]: 94.2%; viability, T/C [33]: 99.2%; viability, T/C [34]: 93.6%; viability, T/C [35]: 5.75%; viability, T/C [36]: 0.31%

From PubChem BioAssay AID2060491 (Molecular Pharmacology Branch, DTP, NCI, 2025)
